Results as given in paper PMC10046369, “Low-Affinity/High-Selectivity Dopamine Transport Inhibition Sufficient to Rescue Cognitive Functions in the Aging Rat” (Biomolecules, 2023).

Key:
Experiment in all cases: cell-based
Design in all cases: Eurofins Cerep functional GPCR screen, antagonist mode, inhibition of control agonist response
Details in all cases: read-out: % Inhibition of Control Agonist Response, Mean
CGRP = biological target: T1, CGRP (Homo sapiens, UniProt Q16602)
T1 construct: gene CALCRL

secretin = biological target: T2, secretin (Homo sapiens, UniProt P47872)
T2 construct: gene SCTR

FFA2 = biological target: T3, FFA2 (Homo sapiens, UniProt O15552)
T3 construct: gene FFAR2

CCR6 = CCR6 (Homo sapiens, UniProt P51684)
ChemR23 = biological target: T4, ChemR23 (Homo sapiens, UniProt Q99788)
T4 construct: gene CMKLR1

GAL1 = biological target: T5, GAL1 (Homo sapiens, UniProt P47211)
T5 construct: gene GALR1

GIP = biological target: T6, GIP (Homo sapiens, UniProt P48546)
T6 construct: gene GIPR

GPR103/QRFP = biological target: T7, GPR103/QRFP (Homo sapiens, UniProt Q96P65)
T7 construct: gene QRFPR

D5 = biological target: T8, D5 (Homo sapiens, UniProt P21918)
T8 construct: gene DRD5

CXCR6 = CXCR6 (Homo sapiens, UniProt O00574)
H2 = biological target: T9, H2 (Homo sapiens, UniProt P25021)
T9 construct: gene HRH2

CT (Calcitonin) = biological target: T10, CT (Calcitonin) (Homo sapiens, UniProt P30988)
T10 construct: gene CALCR

BB1 = biological target: T11, BB1 (Homo sapiens, UniProt P28336)
T11 construct: gene NMBR

GAL2 = biological target: T12, GAL2 (Homo sapiens, UniProt O43603)
T12 construct: gene GALR2

KiSS1 / GPR54 = biological target: T13, KiSS1 / GPR54 (Homo sapiens, UniProt Q969F8)
T13 construct: gene KISS1R

CysLT1 (LTD4) = biological target: T14, CysLT1 (LTD4) (Homo sapiens, UniProt Q9Y271)
T14 construct: gene CYSLTR1

FFA3 = biological target: T15, FFA3 (Homo sapiens, UniProt O14843)
T15 construct: gene FFAR3

H3 = biological target: T16, H3 (Homo sapiens, UniProt Q9Y5N1)
T16 construct: gene HRH3

CCR10 = CCR10 (Homo sapiens, UniProt P46092)
OXGR1 GPR99 = OXGR1 GPR99 (Homo sapiens, UniProt Q96P68)
α2B = biological target: T17, α2B (Homo sapiens, UniProt P18089)
T17 construct: gene ADRA2B

D4.4 = biological target: T18, D4.4 (Homo sapiens, UniProt P21917)
T18 construct: gene DRD4; D4.4

CCR3 = CCR3 (Homo sapiens, UniProt P51677)
BB3 = biological target: T19, BB3 (Homo sapiens, UniProt P32247)
T19 construct: gene BRS3

ETA = biological target: T20, ETA (Homo sapiens, UniProt P25101)
T20 construct: gene EDNRA

B2 = biological target: T21, B2 (Homo sapiens, UniProt P30411)
T21 construct: gene BDKRB2
T21 sequence (P30411 whole entry): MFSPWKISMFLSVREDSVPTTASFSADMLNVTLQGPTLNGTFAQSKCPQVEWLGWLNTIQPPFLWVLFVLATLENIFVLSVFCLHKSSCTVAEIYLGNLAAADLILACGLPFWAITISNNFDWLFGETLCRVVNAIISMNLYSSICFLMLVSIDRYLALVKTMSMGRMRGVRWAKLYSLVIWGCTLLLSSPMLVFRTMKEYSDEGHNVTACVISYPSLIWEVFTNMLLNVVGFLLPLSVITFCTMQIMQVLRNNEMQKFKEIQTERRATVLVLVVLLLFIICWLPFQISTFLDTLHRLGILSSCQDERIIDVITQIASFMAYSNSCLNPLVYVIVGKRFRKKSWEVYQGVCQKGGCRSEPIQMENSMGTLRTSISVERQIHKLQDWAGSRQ

T5 sequence (P47211 whole entry): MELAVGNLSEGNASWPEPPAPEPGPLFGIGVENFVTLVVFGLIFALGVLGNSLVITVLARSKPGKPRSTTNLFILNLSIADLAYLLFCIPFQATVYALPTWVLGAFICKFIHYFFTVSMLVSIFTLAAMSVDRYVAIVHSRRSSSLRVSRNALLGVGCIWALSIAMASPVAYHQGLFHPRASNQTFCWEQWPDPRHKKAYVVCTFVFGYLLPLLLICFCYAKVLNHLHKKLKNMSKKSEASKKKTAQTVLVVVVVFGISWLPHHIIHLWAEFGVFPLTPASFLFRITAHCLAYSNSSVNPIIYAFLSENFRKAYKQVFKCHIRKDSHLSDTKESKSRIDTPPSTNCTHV
T7 sequence (Q96P65 whole entry): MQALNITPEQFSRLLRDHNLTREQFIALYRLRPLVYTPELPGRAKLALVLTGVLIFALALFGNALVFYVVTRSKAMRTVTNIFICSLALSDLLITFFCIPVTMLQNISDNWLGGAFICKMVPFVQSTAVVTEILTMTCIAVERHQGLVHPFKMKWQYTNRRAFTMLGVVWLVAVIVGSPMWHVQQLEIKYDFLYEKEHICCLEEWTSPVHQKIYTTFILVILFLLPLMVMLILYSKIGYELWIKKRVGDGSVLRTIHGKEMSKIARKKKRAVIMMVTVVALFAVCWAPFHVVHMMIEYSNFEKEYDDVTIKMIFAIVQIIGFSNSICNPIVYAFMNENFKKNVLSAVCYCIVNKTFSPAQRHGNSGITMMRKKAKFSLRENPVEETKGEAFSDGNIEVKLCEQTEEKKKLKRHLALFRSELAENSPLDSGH
T18 sequence (P21917 whole entry): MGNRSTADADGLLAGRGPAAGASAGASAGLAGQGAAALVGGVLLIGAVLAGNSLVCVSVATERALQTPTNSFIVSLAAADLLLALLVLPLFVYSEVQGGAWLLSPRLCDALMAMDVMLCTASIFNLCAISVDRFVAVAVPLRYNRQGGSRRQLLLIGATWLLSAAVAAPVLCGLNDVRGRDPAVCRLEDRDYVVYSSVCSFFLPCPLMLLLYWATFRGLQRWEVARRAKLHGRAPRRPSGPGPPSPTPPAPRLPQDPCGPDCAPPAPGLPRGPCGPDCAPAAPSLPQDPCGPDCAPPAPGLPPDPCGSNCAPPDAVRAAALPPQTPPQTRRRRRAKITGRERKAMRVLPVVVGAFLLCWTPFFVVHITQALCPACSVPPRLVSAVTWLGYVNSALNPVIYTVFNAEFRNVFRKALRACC
T19 sequence (P32247 whole entry): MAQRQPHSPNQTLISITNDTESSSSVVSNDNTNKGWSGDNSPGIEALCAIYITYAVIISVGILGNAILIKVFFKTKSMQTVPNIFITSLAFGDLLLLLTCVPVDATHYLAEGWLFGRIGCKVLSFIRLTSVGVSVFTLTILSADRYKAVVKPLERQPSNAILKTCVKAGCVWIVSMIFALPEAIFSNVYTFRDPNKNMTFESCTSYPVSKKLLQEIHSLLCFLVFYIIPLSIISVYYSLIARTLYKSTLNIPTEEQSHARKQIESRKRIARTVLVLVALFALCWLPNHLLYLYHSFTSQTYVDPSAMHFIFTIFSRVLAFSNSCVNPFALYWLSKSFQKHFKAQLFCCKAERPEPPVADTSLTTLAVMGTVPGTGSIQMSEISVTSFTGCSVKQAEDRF
T14 sequence (Q9Y271 whole entry): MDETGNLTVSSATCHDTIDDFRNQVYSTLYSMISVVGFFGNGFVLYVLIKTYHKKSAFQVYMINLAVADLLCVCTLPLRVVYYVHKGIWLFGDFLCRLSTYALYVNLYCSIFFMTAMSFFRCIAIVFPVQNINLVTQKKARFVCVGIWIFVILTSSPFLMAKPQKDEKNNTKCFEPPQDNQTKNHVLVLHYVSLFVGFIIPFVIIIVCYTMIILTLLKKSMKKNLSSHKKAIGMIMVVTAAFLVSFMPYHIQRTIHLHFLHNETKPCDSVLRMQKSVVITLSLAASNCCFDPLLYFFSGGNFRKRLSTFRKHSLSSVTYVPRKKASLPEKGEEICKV
T1 sequence (Q16602 whole entry): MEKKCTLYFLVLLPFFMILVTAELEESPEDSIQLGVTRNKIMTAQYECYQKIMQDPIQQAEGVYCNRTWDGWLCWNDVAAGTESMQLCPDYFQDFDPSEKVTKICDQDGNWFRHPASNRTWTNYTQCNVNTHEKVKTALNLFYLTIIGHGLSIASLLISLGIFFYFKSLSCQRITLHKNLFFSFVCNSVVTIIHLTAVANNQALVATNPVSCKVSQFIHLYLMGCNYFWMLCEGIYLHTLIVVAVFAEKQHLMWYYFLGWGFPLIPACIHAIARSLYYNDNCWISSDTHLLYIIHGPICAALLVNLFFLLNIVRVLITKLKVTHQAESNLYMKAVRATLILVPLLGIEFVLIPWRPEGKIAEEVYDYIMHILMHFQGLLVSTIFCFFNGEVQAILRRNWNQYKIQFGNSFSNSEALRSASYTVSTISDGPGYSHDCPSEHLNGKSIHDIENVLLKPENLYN
T1 sequence (O60894 whole entry partner): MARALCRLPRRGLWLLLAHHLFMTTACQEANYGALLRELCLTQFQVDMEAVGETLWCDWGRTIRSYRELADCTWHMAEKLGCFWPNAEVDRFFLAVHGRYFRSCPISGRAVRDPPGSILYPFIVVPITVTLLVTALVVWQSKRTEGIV
T4 sequence (Q99788 whole entry): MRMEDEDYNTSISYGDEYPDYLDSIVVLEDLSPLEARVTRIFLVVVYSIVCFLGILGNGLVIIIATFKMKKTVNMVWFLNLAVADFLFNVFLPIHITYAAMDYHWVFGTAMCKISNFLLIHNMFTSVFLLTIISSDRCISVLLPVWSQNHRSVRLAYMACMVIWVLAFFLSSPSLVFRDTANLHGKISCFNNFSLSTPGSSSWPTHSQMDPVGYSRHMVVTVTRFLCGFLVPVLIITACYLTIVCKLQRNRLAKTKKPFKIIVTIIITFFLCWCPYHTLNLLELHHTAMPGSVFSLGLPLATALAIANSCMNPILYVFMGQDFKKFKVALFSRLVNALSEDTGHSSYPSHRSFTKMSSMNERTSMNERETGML
T13 sequence (Q969F8 whole entry): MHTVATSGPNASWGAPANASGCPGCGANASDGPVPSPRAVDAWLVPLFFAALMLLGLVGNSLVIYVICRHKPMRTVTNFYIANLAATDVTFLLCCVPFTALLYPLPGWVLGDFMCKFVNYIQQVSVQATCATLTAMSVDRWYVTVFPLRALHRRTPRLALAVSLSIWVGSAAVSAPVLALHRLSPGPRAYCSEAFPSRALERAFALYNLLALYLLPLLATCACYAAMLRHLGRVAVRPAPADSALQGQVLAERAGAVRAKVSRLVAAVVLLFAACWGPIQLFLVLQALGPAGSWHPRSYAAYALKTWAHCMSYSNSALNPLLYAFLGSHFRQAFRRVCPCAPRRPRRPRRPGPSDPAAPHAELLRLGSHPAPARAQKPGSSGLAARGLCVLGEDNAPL
T15 sequence (O14843 whole entry): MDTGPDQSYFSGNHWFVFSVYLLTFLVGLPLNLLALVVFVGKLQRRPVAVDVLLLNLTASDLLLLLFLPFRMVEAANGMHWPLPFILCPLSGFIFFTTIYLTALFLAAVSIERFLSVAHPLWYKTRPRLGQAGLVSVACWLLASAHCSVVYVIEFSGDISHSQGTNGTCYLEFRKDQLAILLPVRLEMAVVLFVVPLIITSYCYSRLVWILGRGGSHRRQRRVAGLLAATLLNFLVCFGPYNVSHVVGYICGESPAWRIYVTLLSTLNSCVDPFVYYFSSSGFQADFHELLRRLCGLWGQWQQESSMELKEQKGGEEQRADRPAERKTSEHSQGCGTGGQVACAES
T3 sequence (O15552 whole entry): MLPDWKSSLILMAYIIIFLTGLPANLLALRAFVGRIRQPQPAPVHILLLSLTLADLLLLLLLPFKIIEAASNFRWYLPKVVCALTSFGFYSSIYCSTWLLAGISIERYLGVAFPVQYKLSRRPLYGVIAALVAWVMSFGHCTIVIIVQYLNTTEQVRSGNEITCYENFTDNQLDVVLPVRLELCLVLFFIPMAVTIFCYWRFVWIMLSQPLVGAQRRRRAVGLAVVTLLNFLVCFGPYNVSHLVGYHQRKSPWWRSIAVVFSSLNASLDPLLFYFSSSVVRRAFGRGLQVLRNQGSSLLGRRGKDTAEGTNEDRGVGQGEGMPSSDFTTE
T11 sequence (P28336 whole entry): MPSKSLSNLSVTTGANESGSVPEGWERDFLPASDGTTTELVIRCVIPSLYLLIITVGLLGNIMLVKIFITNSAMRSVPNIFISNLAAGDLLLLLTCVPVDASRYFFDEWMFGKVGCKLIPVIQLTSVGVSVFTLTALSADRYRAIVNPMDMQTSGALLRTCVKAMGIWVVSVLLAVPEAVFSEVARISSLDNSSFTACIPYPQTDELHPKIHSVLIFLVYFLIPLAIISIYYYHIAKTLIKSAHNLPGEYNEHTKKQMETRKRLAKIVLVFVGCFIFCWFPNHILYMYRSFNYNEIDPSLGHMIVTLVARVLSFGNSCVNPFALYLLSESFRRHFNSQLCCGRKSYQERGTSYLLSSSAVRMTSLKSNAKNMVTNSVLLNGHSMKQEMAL

In the case of `[O-][S@@+](Cc1cncs1)C(c1ccccc1)c1ccccc1` [S-CE-123, (S)-5-((Benzhydrylsulfinyl)Methyl)Thiazole], the inhibition at 2.8 µM (CGRP) is reported as -18.8%, the inhibition at 2.8 µM (secretin) is reported as 17.6% and the inhibition at 2.8 µM (FFA2) is reported as 2.9%. For the same compound, the inhibition at 2.8 µM (CCR6) was -26.7%, the inhibition at 2.8 µM (ChemR23) was -1.6% and the inhibition at 2.8 µM (GAL1) was 2.3%. It also gave an inhibition at 2.8 µM (GIP) of -6.6%, an inhibition at 2.8 µM (GPR103/QRFP) of -8.8% and an inhibition at 2.8 µM (D5) of -10.8%. It also gave an inhibition at 2.8 µM (CXCR6) of -7.6%, an inhibition at 2.8 µM (H2) of -2.4% and an inhibition at 2.8 µM (CT (Calcitonin)) of -21.7%. It also gave an inhibition at 2.8 µM (BB1) of -10.5%, an inhibition at 2.8 µM (GAL2) of -4.8% and an inhibition at 2.8 µM (KiSS1 / GPR54) of -2.8%. It also gave an inhibition at 2.8 µM (CysLT1 (LTD4)) of -12.9%, an inhibition at 2.8 µM (FFA3) of -1.4% and an inhibition at 2.8 µM (H3) of -0.3%. The inhibition at 2.8 µM (CCR10) was -6.9%, the inhibition at 2.8 µM (OXGR1 GPR99) was -10.2% and the inhibition at 2.8 µM (α2B) was -8.3%. The inhibition at 2.8 µM (D4.4) was -7.9%, the inhibition at 2.8 µM (CCR3) was -10.7% and the inhibition at 2.8 µM (BB3) was 6.2%. The inhibition at 2.8 µM (ETA) was -0.5% and the inhibition at 2.8 µM (B2) was -32.1%.
